target: T1, full length AKT E17K (Homo sapiens, UniProt P31749, E17K); assay: NanoBRET Target Engagement (TE) Assay; assay type: cell-based; conditions: competitive displacement of tracer in cells, read-out: AKT1 E17K IC50
T1 construct: host or cells: HEK-293 (ATCC CRL-1573)
In short: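 Compound and tracer incubated 2 h before luminescence at donor 450 nm and acceptor 600 nm, with extracellular signal inhibited. EC50 by sigmoidal variable-slope regression.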

T1 sequence (P31749 whole entry E17K): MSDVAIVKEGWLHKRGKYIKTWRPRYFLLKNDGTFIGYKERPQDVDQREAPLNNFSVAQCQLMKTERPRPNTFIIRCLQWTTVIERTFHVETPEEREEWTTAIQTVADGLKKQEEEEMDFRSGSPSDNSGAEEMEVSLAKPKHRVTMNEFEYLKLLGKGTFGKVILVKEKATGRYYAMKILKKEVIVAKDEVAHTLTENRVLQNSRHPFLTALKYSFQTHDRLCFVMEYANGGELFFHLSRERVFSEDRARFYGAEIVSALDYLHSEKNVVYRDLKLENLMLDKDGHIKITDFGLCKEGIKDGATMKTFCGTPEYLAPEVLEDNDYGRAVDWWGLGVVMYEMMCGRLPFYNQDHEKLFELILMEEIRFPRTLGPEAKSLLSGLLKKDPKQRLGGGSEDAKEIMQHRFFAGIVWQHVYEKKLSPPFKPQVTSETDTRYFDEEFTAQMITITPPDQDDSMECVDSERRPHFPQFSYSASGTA

`COc1ccc(-c2ccc3nc(-c4cccnc4N)n(-c4ccc(CN5CCC(Nc6ccnc(C#N)n6)CC5)cc4)c3n2)cc1` [Example 421, 4-((1-(4-(2-(2-Aminopyridin-3-yl)-5-(4-methoxyphenyl)-3H-imidazo[4,5-b]pyridin-3-yl)benzyl)piperidin-4-yl)amino)pyrimidine-2-carbonitrile] and `Cc1ccc(-c2ccc3nc(-c4cccnc4N)n(-c4ccc(CN5CCC(Nc6ccnc(C#N)n6)CC5)cc4)c3n2)nc1` [Example 547, 4-((1-(4-(2-(2-Aminopyridin-3-yl)-5-(5-methylpyridin-2-yl)-3H-imidazo[4,5-b]pyridin-3-yl)benzyl)piperidin-4-yl)amino)pyrimidine-2-carbonitrile] cannot be ordered by IC50: less than 0.015 µM for the first, less than 0.015 µM for the second.

`N#Cc1nccc(N2CCN(Cc3ccc(-n4c(-c5cccnc5N)nc5ccc(-c6ccccc6Cl)nc54)cc3)CC2)n1` [Example 324, 4-(4-(4-(2-(2-Aminopyridin-3-yl)-5-(2-chlorophenyl)-3H-imidazo[4,5-b]pyridin-3-yl)benzyl)piperazin-1-yl)pyrimidine-2-carbonitrile] and `N#Cc1nccc(N2C[C@H]3CN(Cc4ccc(-n5c(-c6cccnc6N)nc6ccc(-c7ccccc7)nc65)cc4)C[C@@H]3C2)n1` [Example 341, 4-((3aR,6aR)-5-(4-(2-(2-aminopyridin-3-yl)-5-phenyl-3H-imidazo[4,5-b]pyridin-3-yl)benzyl)hexahydropyrrolo[3,4-c]pyrrol-2(1H)-yl)pyrimidine-2-carbonitrile] cannot be ordered by IC50: less than 0.015 µM for the first, less than 0.015 µM for the second.

`N#Cc1nccc(NC2CCN(Cc3ccc(-n4c(-c5cccnc5N)nc5ccc(-c6ccc(C(F)(F)F)nc6)nc54)cc3)CC2)n1` [Example 646, 4-((1-(4-(2-(2-Aminopyridin-3-yl)-5-(6-(trifluoromethyl)pyridin-3-yl)-3H-imidazo[4,5-b]pyridin-3-yl)benzyl)piperidin-4-yl)amino)pyrimidine-2-carbonitrile] and `N#Cc1nccc(NC2CCN(Cc3ccc(-n4c(-c5cccnc5N)nc5ccc(-c6ccncc6C#N)nc54)cc3)CC2)n1` [Example 400, 4-((1-(4-(2-(2-Aminopyridin-3-yl)-5-(3-cyanopyridin-4-yl)-3H-imidazo[4,5-b]pyridin-3-yl)benzyl)piperidin-4-yl)amino)pyrimidine-2-carbonitrile] cannot be ordered by IC50: less than 0.015 µM for the first, less than 0.015 µM for the second.

`N#Cc1nccc(NC2CCN(Cc3ccc(-n4c(-c5cccnc5N)nc5cc(Br)c(-c6ccc(F)cc6)nc54)cc3)CC2)n1` [Example 549, 4-((1-(4-(2-(2-Aminopyridin-3-yl)-6-bromo-5-(4-fluorophenyl)-3H-imidazo[4,5-b]pyridin-3-yl)benzyl)piperidin-4-yl)amino)pyrimidine-2-carbonitrile] and `N#Cc1nccc(NC2CCN(Cc3ccc(-n4c(-c5cccnc5N)nc5ccc(-c6cnco6)nc54)cc3)CC2)n1` [Example 462, 4-((1-(4-(2-(2-Aminopyridin-3-yl)-5-(oxazol-5-yl)-3H-imidazo[4,5-b]pyridin-3-yl)benzyl)piperidin-4-yl)amino)pyrimidine-2-carbonitrile] cannot be ordered by IC50: less than 0.015 µM for the first, less than 0.015 µM for the second.

First: Cn1cnc(-c2ccc3nc(-c4cccnc4N)n(-c4ccc(CN5CCC(Nc6ccnc(C#N)n6)CC5)cc4)c3n2)n1 [Example 559, 4-((1-(4-(2-(2-Aminopyridin-3-yl)-5-(1-methyl-1H-1,2,4-triazol-3-yl)-3H-imidazo[4,5-b]pyridin-3-yl)benzyl)piperidin-4-yl)amino)pyrimidine-2-carbonitrile]
Second: Cc1cc2nc(-c3cccnc3N)n(-c3ccc(CN4CCC(Nc5ccnc(C#N)n5)CC4)cc3)c2nc1C#N [Example 565, 2-(2-Aminopyridin-3-yl)-3-(4-((4-((2-cyanopyrimidin-4-yl)amino)piperidin-1-yl)methyl)phenyl)-6-methyl-3H-imidazo[4,5-b]pyridine-5-carbonitrile]
The IC50 of the first is higher: 0.015 to 0.06 µM for the first, less than 0.015 µM for the second. The second is the more potent here.

First: N#Cc1nccc(NC2CCN(Cc3ccc(-n4c(-c5cccnc5N)nc5ncccc54)cc3)CC2)n1 [Example 533, 4-((1-(4-(2-(2-Aminopyridin-3-yl)-1H-imidazo[4,5-b]pyridin-1-yl)benzyl)piperidin-4-yl)amino)pyrimidine-2-carbonitrile]
Second: Cc1cc(C)c2nc(-c3cccnc3N)n(-c3ccc(CN4CCC(Nc5ccnc(C#N)n5)CC4)cc3)c2n1 [Example 493, 4-((1-(4-(2-(2-Aminopyridin-3-yl)-5,7-dimethyl-3H-imidazo[4,5-b]pyridin-3-yl)benzyl)piperidin-4-yl)amino)pyrimidine-2-carbonitrile]
The IC50 of the first is higher: 0.06 to 0.6 µM for the first, less than 0.015 µM for the second. The second is the more potent here.

same assay, conditions: competitive tracer displacement in living cells, read-out: AKT1 E17K IC50

First: N#Cc1nccc(N2CCC3(CCN(Cc4ccc(-n5c(-c6cccnc6N)nc6ccc(-c7ccccc7)nc65)cc4)C3)C2)n1 (centres unmarked) [Example 302, 4-(7-(4-(2-(2-Aminopyridin-3-yl)-5-phenyl-3H-imidazo[4,5-b]pyridin-3-yl)benzyl)-2,7-diazaspiro[4.4]nonan-2-yl)pyrimidine-2-carbonitrile]
Second: N#Cc1nccc(N2CCN(Cc3ccc(-n4c(-c5cccnc5N)nc5ccc(-c6ccc(F)cc6)nc54)cc3)CC2)n1 [Example 242, 4-(4-(4-(2-(2-Aminopyridin-3-yl)-5-(4-fluorophenyl)-3H-imidazo[4,5-b]pyridin-3-yl)benzyl)piperazin-1-yl)pyrimidine-2-carbonitrile]
The IC50 of the first is lower: less than 0.015 µM for the first, 0.015 to 0.06 µM for the second. The first is the more potent here.

First: N#Cc1cc(NC2CCN(Cc3ccc(-n4c(-c5cccnc5N)nc5ccc(-c6ccccc6)nc54)cc3)CC2)ncn1 [Example 91, 6-((1-(4-(2-(2-Aminopyridin-3-yl)-5-phenyl-3H-imidazo[4,5-b]pyridin-3-yl)benzyl)piperidin-4-yl)amino)pyrimidine-4-carbonitrile]
Second: N#Cc1cc(NC2CCN(Cc3ccc(-n4c(-c5cccnc5N)nc5ccc(-c6ccccc6)nc54)cc3)CC2)cnn1 [Example 158, 5-((1-(4-(2-(2-Aminopyridin-3-yl)-5-phenyl-3H-imidazo[4,5-b]pyridin-3-yl)benzyl)piperidin-4-yl)amino)pyridazine-3-carbonitrile]
The IC50 of the first is lower: less than 0.015 µM for the first, 0.015 to 0.06 µM for the second. The first is the more potent here.

`N#Cc1nccnc1C(=O)N1CCN(Cc2ccc(-n3c(-c4cccnc4N)nc4ccc(-c5ccccc5)nc43)cc2)CC1` [Example 163, 3-(4-(4-(2-(2-aminopyridin-3-yl)-5-phenyl-3H-imidazo[4,5-b]pyridin-3-yl)benzyl)piperazine-1-carbonyl)pyrazine-2-carbonitrile] and `N#Cc1ncccc1C(=O)N1CCN(Cc2ccc(-n3c(-c4cccnc4N)nc4ccc(-c5ccccc5)nc43)cc2)CC1` [Example 143, 3-(4-(4-(2-(2-Aminopyridin-3-yl)-5-phenyl-3H-imidazo[4,5-b]pyridin-3-yl)benzyl)piperazine-1-carbonyl)picolinonitrile] fall in the same range of IC50: 0.06 to 0.6 µM for the first, 0.06 to 0.6 µM for the second.

First: N#Cc1ccc(C(=O)N2CCN(Cc3ccc(-n4c(-c5cccnc5N)nc5ccc(-c6ccccc6)nc54)cc3)CC2)nc1 [Example 142, 6-(4-(4-(2-(2-Aminopyridin-3-yl)-5-phenyl-3H-imidazo[4,5-b]pyridin-3-yl)benzyl)piperazine-1-carbonyl)nicotinonitrile]
Second: N#Cc1cnnc(NC2CCN(Cc3ccc(-n4c(-c5cccnc5N)nc5ccc(-c6ccccc6)nc54)cc3)CC2)c1 [Example 54, 6-((1-(4-(2-(2-Aminopyridin-3-yl)-5-phenyl-3H-imidazo[4,5-b]pyridin-3-yl)benzyl)piperidin-4-yl)amino)pyridazine-4-carbonitrile]
The IC50 of the first is higher: 0.6 to 10 µM for the first, 0.06 to 0.6 µM for the second. The second is the more potent here.

`N#Cc1ccc(C(=O)NCc2ccc(-n3c(-c4cccnc4N)nc4cccnc43)cc2)cn1` [Example 121, N-(4-(2-(2-Aminopyridin-3-yl)-3H-imidazo[4,5-b]pyridin-3-yl)benzyl)-6-cyanonicotinamide] and `N#Cc1cc(NCc2ccc(-n3c(-c4cccnc4N)nc4cccnc43)cc2)ccn1` [Example 127, 4-((4-(2-(2-Aminopyridin-3-yl)-3H-imidazo[4,5-b]pyridin-3-yl)benzyl)amino)picolinonitrile] fall in the same range of IC50: 0.6 to 10 µM for the first, 0.6 to 10 µM for the second.

Compared with `N#Cc1cccc(C(=O)NCc2ccc(-n3c(-c4cccnc4N)nc4cc(-c5ccccc5)cnc43)cc2)n1` [Example 168, N-(4-(2-(2-Aminopyridin-3-yl)-6-phenyl-3H-imidazo[4,5-b]pyridin-3-yl)benzyl)-6-cyanopicolinamide], `N#Cc1cncnc1C(=O)NC1CCN(Cc2ccc(-n3c(-c4cccnc4N)nc4ccc(-c5ccccc5)nc43)cc2)CC1` [Example 73, N-(1-(4-(2-(2-Aminopyridin-3-yl)-5-phenyl-3H-imidazo[4,5-b]pyridin-3-yl)benzyl)piperidin-4-yl)-5-cyanopyrimidine-4-carboxamide] is lower in IC50: 0.6 to 10 µM for the first, 0.015 to 0.06 µM for the second. The second is the more potent here.

`N#Cc1cc(N2CCN(Cc3ccc(-n4c(-c5cccnc5N)nc5cccnc54)cc3)CC2)ccn1` [Example 13, 4-(4-(4-(2-(2-Aminopyridin-3-yl)-3H-imidazo[4,5-b]pyridin-3-yl)benzyl)piperazin-1-yl)picolinonitrile] and `N#Cc1cccc(N2CCN(Cc3ccc(-n4c(-c5cccnc5N)nc5cccnc54)cc3)CC2)n1` [Example 15, 6-(4-(4-(2-(2-Aminopyridin-3-yl)-3H-imidazo[4,5-b]pyridin-3-yl)benzyl)piperazin-1-yl)picolinonitrile] fall in the same range of IC50: 0.6 to 10 µM for the first, 0.6 to 10 µM for the second.

First: N#Cc1cccnc1OC1CCN(Cc2ccc(-n3c(-c4cccnc4N)nc4cccnc43)cc2)CC1 [Example 6, 2-((1-(4-(2-(2-aminopyridin-3-yl)-3H-imidazo[4,5-b]pyridin-3-yl)benzyl)piperidin-4-yl)oxy)nicotinonitrile]
Second: CC(=O)Nc1cccc(-c2ccc3nc(-c4cccnc4N)n(-c4ccc(CN5CCN(c6cnc(C#N)nc6)CC5)cc4)c3n2)c1 [Example 42, N-(3-(2-(2-Aminopyridin-3-yl)-3-(4-((4-(2-cyanopyrimidin-5-yl)piperazin-1-yl)methyl)phenyl)-3H-imidazo[4,5-b]pyridin-5-yl)phenyl)acetamide]
The IC50 of the first is higher: 0.6 to 10 µM for the first, 0.015 to 0.06 µM for the second. The second is the more potent here.

`N#Cc1cc(N2CCN(Cc3ccc(-n4c(-c5cccnc5N)nc5ccc(N6CCCNC(=O)C6)nc54)cc3)CC2)ncn1` [Example 284, 6-(4-(4-(2-(2-Aminopyridin-3-yl)-5-(3-oxo-1,4-diazepan-1-yl)-3H-imidazo[4,5-b]pyridin-3-yl)benzyl)piperazin-1-yl)pyrimidine-4-carbonitrile] showed an IC50 of 0.06 to 0.6 µM.

Source: patent US12209087B2, “AKT1 modulators” (Alterome Therapeutics, Inc., priority 2022, dated 2025)
